Test results as given in US12390481B2, “Sialic acid compositions for the use of inhibiting and treating coronavirus infection” (LifeScience AS, priority 2020, dated 2025).

What was measured:
[1] = according to Schalcter (2017), cited from earlier work
CoV-OC43 = test: in vitro inhibition of infection of cells with test virus CoV-OC43; format: cell-based; details: for infection of cells by CoV-OC43 at different concentrations: different dilutions of the sialic acid, two replicates, FIGS. 1 and 2
Protocol: FIG. 1 provides data from one replicate showing infection of cells by CoV-OC43 at different concentrations of either Neu5Ac or Neu5Gc.
FIG. 2 provides data from another replicate showing infection of cells by CoV-OC43 at different concentrations of either Neu5Ac or Neu5Gc.
FIG. 3 provides data from an experiment where inhibition of infection by Neu5Ac is compared to a control sugar, galactose.
The effectiveness of sialic acid (Neu5Ac or Neu5Gc) in preventing corona virus infection was evaluated in vitro in a model system. Different dilutions of the sialic acids were tested for their ability to inhibit infection of cells with the test virus CoV-OC43. FIGS. 1 and 2 provide data from two replicates showing infection of cells by CoV-OC43 at different concentrations of either Neu5Ac or Neu5Gc (Neu5Ac left hand bars, Neu5Gc right hand bars).

SMILES | excretion via urine [1] | absorption after ingestion ([1]; after ingestion) | inhibition of infection compared to a control sugar, galactose (CoV-OC43; CoV-OC43, FIG. 3) | infection of cells by CoV-OC43 at different concentrations (CoV-OC43)
CC(=O)N[C@H]1[C@H]([C@H](O)[C@H](O)CO)OC(O)(C(=O)O)C[C@@H]1O (some centres unmarked) [Neu5Ac, N-acetyl neuraminic acid] | quickly excreted via urine | rapidly absorbed | prevents infection as compared to the control | inhibited in a dose-dependent manner
O=C(CO)N[C@H]1[C@H]([C@H](O)[C@H](O)CO)OC(O)(C(=O)O)C[C@@H]1O (some centres unmarked) [Neu5Gc, N-glycolylneuraminic acid] |  |  |  | inhibited in a dose-dependent manner
